Oligonucleotides are written 5' to 3', each unit as a sugar letter and its base; * is a phosphorothioate linkage, no mark a phosphodiester; rarer units and linkages stand in square brackets, end groups in braces. Plain capitals give the bases only. d = 2'-deoxy (DNA); {P} = phosphate

What all share (format): cell-based
Data set [1] deals with normal neonatal human fibroblasts. The experiment in a line: FACS analysis of normal neonatal fibroblasts. The following applies: 40 μM; for S-phase checkpoint: within 24 hours. Here is the method: The averages and standard deviations presented in FIGS. 32A–32D were determined from triplicate samples. One representative experiment of three is presented. […] Control 11-base oligonucleotides complementary (11mer-2) or unrelated (11mer-3) to the telomere overhang had no effect on the cells.

The subject of data set [2] is Cloudman S91 mouse melanoma cells. In words: Melanin content of Cloudman S91 melanoma cells. The following applies: for melanin content relative to control diluent-treated cells: 10 μM, five days, FIG. 17; for melanogenesis: 100 μM dinucleotides or 40 μM 11mers, 6 days; for pigment content increase, of control levels: 100 μM, three experiments; for pigment content increase, of control levels / melanin content, of control cells / increase in melanin / reduction of melanogenic activity by removal of the 5′ phosphate: 5 days; for melanin content, of control cells: FIG. 12; for increase in melanin: FIG. 15; for reduction of melanogenic activity by removal of the 5′ phosphate: FIG. 16. On the procedure:
The induction of melanogenesis in Cloudman S91 mouse melanoma cells by a five-nucleotide oligomer CATAC (SEQ ID NO: 6) and a nine-nucleotide oligomer, GAGTATGAG (SEQ ID NO: 1) was examined. Duplicates of Cloudman S91 murine melanoma cells were incubated with either 100 μM oligo or an equal volume of diluent (H2O) for 5 days. The cells were then collected, counted, and an equal number of cells were pelleted for melanin analysis. […] Variations of this oligonucleotide were evaluated: a scrambled 9-mer (TAGGAGGAT; SEQ ID NO: 2) and two truncated versions, a 7-mer (AGTATGA; SEQ ID NO: 3) and second 5-mer (GTATG; SEQ ID NO: 4). […] The truncated versions (SEQ ID NOs: 3 and 4) were also active, inducing 640% and 670% increases, respectively.
Cultures of Cloudman S91 murine melanoma cells were treated for 5 days with SEQ ID NO: 1, SEQ ID NO: 6, pTpT as a positive control, or an equal volume of diluent as a negative control. […] SEQ ID NO: 6 produced a slight increase in melanin, to 165+/−77% of control levels. SEQ ID NO: 1 stimulated melanin content to an average of 600+/−260% of control levels.
pTpT, shown previously to stimulate pigmentation in these cells, was used as a reference treatment, and diluent alone was used as a negative control. After five days of treatment with the oligonucleotides, the cells were collected, counted, and an equal number of cells were pelleted for melanin analysis. […] SEQ ID NO: 5, representing the telomere over-hang sequence, also at 10 μM, increased the melanin level to 10 times that of control cells.
S91 cells were cultured in the presence of diluent alone, pTpT p9mer (SEQ ID NO: 1), p7mer (AGTATGA; SEQ ID NO: 7) or p5mer #2 (SEQ ID NO: 4). […] Both SEQ ID NOS: 4 and 7 stimulated a 7–8 fold increase in melanin.
S91 cells were cultured for 5 days in the presence of the thymidine dinucleotides or SEQ ID NO: 1 with or without a 5′ phosphate or diluent alone as a negative control.
Cultures of S91 mouse melanoma cells (100,000 cells/38 cm^2) were treated with 100 μM pTpT or phosphorothioate pTpT (pTspT) (FIG. 22) or 40 μM 11mer-1 or the phosphorothioate 11mer-1 (11mer-1-S) (FIG. 23) for 6 days and were then collected, counted and assayed for melanin content.
Duplicate cultures of S91 cells (100,000 cells/39 cm^2) were either sham-irradiated or irradiated with 5 mJ/cm^2 solar-simulated light from a 1 kW xenon arc solar-simulator (XMN 1000-21, Optical Radiation, Azuza, Calif.) metered at […] using a research radiometer (model IL1700A, International Light, Newburyport, Mass.). Two sham-irradiated plates were then supplemented with 100 μM pTspT and two irradiated cultures were similarly treated with pTspT. After one week, cells were collected, counted and analyzed for melanin content by dissolving the cell pellets in 1 N NaOH and measuring the optical density at […]. […] However, this response was blocked by the addition of pTspT (FIG. 24). In addition, the constitutive pigmentation of these cells was reduced by the pTspT in the sham-irradiated cultures, similar to the data presented in FIGS. 22 and 23.

In data set [3] the test system is Human squamous carcinoma cell line SCC12F cells. The experiment in a line: Cell growth / cell yield of SCC12F cells (Coulter counter). The following applies: for reduction of cell number: after 2 days, FIG. 14. On the procedure: Human squamous carcinoma cell line SCC12F cells were maintained in primary keratinocyte medium (300 ml DME, 100 ml F-12 nutrient supplement, 50 ml 10× adenine, 50 ml fetal bovine serum, 5 ml penicillin/streptomycin stock, and 0.5 ml of 10 μg/ml epidermal growth factor and hydrocortisone to final concentration of 1.4 μg/ml) and dosed with either water (diluent), 100 μM pTpT (T2, Midland Certified Reagent Company, Midland, Tex.) or 100 μM pdApdA (A2). Cells were harvested before dosing (day 0), and 1, 3, 4, and 5 days after dosage, and were counted by Coulter™ counter. After harvesting, the cells were processed for total RNA isolation and were analyzed by Northern blot. Addition of a control deoxyadenine dinucleotide (pdApdA), a compound very similar to pTpT but not readily dimerized by UV irradiation, and therefore rarely excised during the course of UV-induced DNA repair, has no effect.
In a second experiment, SCC12F cells were cultured as described above. Two or three days after seeding, the preconfluent cultures were given fresh medium supplemented with either 100 μM T2 or diluent as a control. Cells were collected daily by trypsinization and counted by Coulter™ counter. The cell yield in cultures treated with T2 was reduced by […] compared to that of paired control cultures after five days (FIG. 2). This corresponds to 2.3 population doublings in this time for control cells, compared with 1 doubling for T2-treated cells.
pTpT was previously found to inhibit cell cycle progression, at least in part through activation of p53 and subsequent upregulation of the cyclin dependent kinase inhibitor p21. Cultures of the human keratinocyte line SCC12F were treated with pTpT, SEQ ID NO: 1, SEQ ID NO: 6 or diluent alone as a negative control, collected and counted 48 hours later and processed for northern blot analysis of p21 mRNA expression. […] Thus, the sequences of the present invention activate p53 and inhibit cell proliferation similar to the effect of pTpT.
Exposure of keratinocytes to UVB irradiation affects the expression of genes involved in cell cycle arrest, DNA repair and cytokine production. Single-stranded oligonucleotides sharing sequence homology with the telomere 3′ overhang, when introduced into cells, mimic these UV effects. To identify other genes that may be similarly modulated, cells of keratinocyte origin (SCC12F; a human epidermal squamous cell carcinoma line provided by Dr. James Rheinwald of Harvard University) were exposed to solar simulated irradiation (SSR) (20 mJ/cm^2, measured at 285±5 nm), to an 11-base oligonucleotide (pGTTAGGGTTAG; SEQ ID NO:5) homologous to the telomere overhang (T-oligo), or to a complementary sequence as control [pCTAACCCTAAC; (SEQ ID NO:9) control oligonucleotide]. […] These are mitochondrial-transcribed genes whose encoded proteins participate in cellular respiration.

For “pCTAACCCTAAC (DNA, 5' {P}, backbone not given here) [SEQ ID NO: 9, reference compound]”, the S-phase checkpoint entry in data set [1] is “had no effect”. In addition, the “melanin content relative to control diluent-treated cells” value in data set [2] is on record as “did not produce significant change in pigment content”.
With thymidine dinucleotide [pTpT], in data set [3] (100 μM, after five days), the “cell yield reduced compared to paired control cultures” value was found to be 75%. Also, in data set [3] (100 μM, days 1, 3, 4, 5 after dosage), the cell growth rate result is “marked decreases in cell growth rate”. For the same substance, the population doublings in data set [3] (100 μM, five days (control 2.3)) turned out to be 1. Also, the “reduction of cell number” value in data set [3] is 40%. In data set [2], the “melanin content relative to control diluent-treated cells” value was 3 times that of control; the melanogenesis entry is listed as “stimulated melanogenesis”; the “pigment content increase, of control levels” value is recorded as 155%±60%; the “melanin content, of control cells” value is 255+/−60%. In data set [2], the increase in melanin entry is “moderate increase in melanin content” and the “reduction of melanogenic activity by removal of the 5′ phosphate” value is given as 80%.
In the case of “pGATCGATCGAT (DNA {P}-dGdAdTdCdGdAdTdCdGdAdT) [SEQ ID NO: 10, reference compound]”, the S-phase checkpoint entry in data set [1] is recorded as “had no effect”. In addition, the “melanin content relative to control diluent-treated cells” value in data set [2] was “did not produce significant change in pigment content”.
Consider “11mer-1-S: phosphorothioate 11mer-1 (dG*dT*dT*dA*dG*dG*dG*dT*dT*dA*dG; further chemistry not fully specified)”, for which the melanogenesis result in data set [2] is reported as “did not”. Besides, the constitutive pigmentation result in data set [2] (100 μM pTspT or 40 μM 11mer-1-S, 6 days or one week) was “reduced the constitutive pigmentation”.
On to “pGAGTATGAG (DNA, 5' {P}, backbone not given here) [SEQ ID NO: 1]”, for which the “reduction of cell number” value in data set [3] is “approximately 50%”. For the same substance, in data set [2], the “pigment content increase, of control levels” value is 418%±267%; the “melanin content, of control cells” value is on record as 600+/−260%; the increase in melanin entry is listed as “a larger increase”; the “reduction of melanogenic activity by removal of the 5′ phosphate” value was determined as 60%. Further, the “increase in melanin content” value in data set [2] (variations of the 9-mer, cells not given) came out at 800%.
As to “pGTTAGGGTTAG (DNA {P}-dGdTdTdAdGdGdGdTdTdAdG) [SEQ ID NO: 5]”, the cellular proliferation result in data set [3] (Example 27) is listed as “substantially inhibited cellular proliferation”. The apoptotic cells entry in data set [1] (up to 72 hours) is “no apoptotic cells were detected”. Moreover, the S-phase checkpoint entry in data set [1] is listed as “activation of an S-phase checkpoint”. In addition, in data set [2], the “melanin content relative to control diluent-treated cells” value is reported as 10 times that of control and the melanogenesis result was “stimulated melanogenesis”.

(Values after patent publication US7033829B2, “Method to inhibit cell growth using oligonucleotides” (Trustees of Boston University, priority 2000, dated 2006).)
